Source: PMC5294416, “Novel peptides for deciphering structural and signalling functions of E-cadherin in mouse embryonic stem cells” (Scientific Reports, 2017)
“Also recorded” adds a separate entry of the source.

Legend:
[1] = molecular target: T1, recombinant mouse E-Cadherin Fc Chimera (Mus musculus, UniProt P09803); assay: Biacore SPR equilibrium binding analysis (affinity capture)
T1 construct: purchased R&D Systems
Description: Biacore SPR analysis was used to measure the interaction between peptides and recombinant mouse E-Cadherin Fc Chimera (R&D Systems). Analytes were passed over an HTE chip with surface bound His-tagged Recombinant Mouse E-Cadherin Fc Chimera (R&D Systems). The kinetics of interaction, i.e. the rates of complex formation (ka) and dissociation (kd), were determined and Integrin α4β7 protein was used as a control. Analysis was performed by the Biomolecular Analysis Core Facility (The University of Manchester, UK) on a Proteon XPR-36 protein interaction array system (Bio-Rad) using a HTE chip for high capacity His-tagged protein capture (Bio-Rad). Equilibrium analysis runs were performed three times and an average KD was calculated. Running buffer: HBS/0.02%, Tween/2 mM, CaCl2/1 mM MgCl2.

[2] = system: wtD3 mESCs; assay: Loss of cell-cell contact, phase contrast microscopy; assay type: cell-based, mouse
Description: (§1) Unless otherwise stated, mESC lines were grown on gelatinised tissue culture grade 6-well plates at 37 °C/5% CO2, as previously described. mESCs cells were treated with 10 μM peptide in mESC culture medium which was replenished every 24 h. Inhibition of specific pathways in mESCs was achieved by incubation with 10 μM LY294002 (PI3K inhibitor), PD9805 (MEK inhibitor) and SB431542 (TGFβ1 R inhibitor).

[3] = system: STAT3 phosphorylation in wtD3 mESCs; assay: Western blot analysis of phosphorylated STAT3; assay type: cell-based, mouse
Description: as §1
(§2) Cells were harvested using cell dissociation buffer, centrifuged and washed with PBS prior to lysis using Radioimmunoprecipitation (RIPA) buffer (Sigma) containing protease inhibitor cocktail tablets (1 tablet per 10 ml RIPA buffer) (Roche Applied Science) at a concentration of 2 × 10^7 cell/ml. Lysates were separated by SDS-PAGE and electrotransferred onto nitrocellulose membrane as previously described. The membrane was probed using the appropriate primary antibody with subsequent incubation with HRP-conjugated secondary antibody. The membrane was exposed to an autoradiographic film (Hyperfilm ECL, GE Healthcare, Amersham, UK) for the appropriate time period in an X-ray cassette before the film was manually developed in a dark room using Kodak GBX developer and fixer solutions (Sigma, Dorset, UK). Primary antibodies: anti-α-tubulin, 1:2000 dilution (T9026, Sigma, Dorset, UK); anti-AKT, 1:200 dilution (#9272, Cell Signalling Technology, MA, USA); anti-pAKT (Ser473), 1:200 (#4060S, Cell Signalling Technology, MA, USA); anti-STAT3, 1:200 dilution (SC-482, Santa Cruz Biotechnology Inc, TX, USA); anti-pSTAT3, 1:200 dilution (#9138S, Cell Signalling Technology, MA, USA).

[4] = system: Nanog, Klf4, Tbx3, Esrrb, Nr0b1, Nr5a2 and Tet1 transcripts in wtD3 mESCs; assay: qPCR analysis of pluripotency transcript expression; assay type: cell-based, mouse
Description: as §1
Primers for qPCR were designed using the Roche Applied science Universal Probe Library software and BLAST screened for sequence specificity. Only primers producing a single dissociation peak were used. RNA was extracted from mESCs and cDNA at a concentration of 2 ng/μl was used for analysis in a MicroAmp Optical 96-well Reaction Plate (Applied Biosystems) using SYBR green Jumpstart Taq ReadyMix (Applied Biosystems). Primer sequences: 18srRNA Forward (F) […], Reverse (R) […]; ESRRB F-[…], R-[…]; KLF4 F-[…], R-ATGTCCGCCAGGTTGAAG; NANOG F-[…], R-[…]; NR0B1 F-[…], R-[…]; NR5A2 F-[…], R-[…]; TBX3 F-[…], R-[…]; TET1 F-[…], R-[…].

[5] = system: NANOG protein in wtD3 mESCs; assay: Immunofluorescence microscopy analysis of NANOG protein expression; assay type: cell-based, mouse; details: 96 h / 4 days where stated
Description: Monolayer cultured mESCs were fixed in situ in 4% w/v PFA in PBS for 30 minutes at room temperature, washed twice with PBS and blocked with 1% goat serum in 0.1% w/v BSA, 0.1% Triton X-100 in PBS for 30 minutes. Cells were incubated in the appropriate primary antibody in goat blocking buffer for two hours at RT. Cells were washed three times in PBS and incubated in the appropriate Alexa fluor-488 or −546 conjugated secondary antibody at RT for 1 hour in the dark. Cells were washed three times with PBS, mounted in 4′6-diamidino-2-phenylindole (DAPI) (Vector Laboratories) and visualized using a Leica DM6000B fluorescence microscope (Leica Microsystems) and processed using Leica LAS X Core software (Leica Microsystems). Primary antibodies: anti-Nanog, 1:200 dilution (ab80892, Abcam Plc, Cambridge, UK); anti-Oct4, 1:200 dilution (ab19857, Abcam Plc, Cambridge, UK). […] Cells were visualized using a Leica DM6000B fluorescence microscope (Leica Microsystems) and processed using Leica LAS X Core software (Leica Microsystems).
(§3) Images were imported into ImageJ and fluorescence intensity measured using the Analyse > Measure function on areas selected using the rectangular or oval selection icons.

[6] = system: OCT4 protein in wtD3 mESCs; assay: Immunofluorescence microscopy analysis of OCT4 protein expression with pathway inhibitors; assay type: cell-based, mouse
Description: as §1
Monolayer cultured mESCs were fixed in situ in 4% w/v PFA in PBS for 30 minutes at room temperature, washed twice with PBS and blocked with 1% goat serum in 0.1% w/v BSA, 0.1% Triton X-100 in PBS for 30 minutes. Cells were incubated in the appropriate primary antibody in goat blocking buffer for two hours at RT. Cells were washed three times in PBS and incubated in the appropriate Alexa fluor-488 or −546 conjugated secondary antibody at RT for 1 hour in the dark. Cells were washed three times with PBS, mounted in 4′6-diamidino-2-phenylindole (DAPI) (Vector Laboratories) and visualized using a Leica DM6000B fluorescence microscope (Leica Microsystems) and processed using Leica LAS X Core software (Leica Microsystems). Primary antibodies: anti-Nanog, 1:200 dilution (ab80892, Abcam Plc, Cambridge, UK); anti-Oct4, 1:200 dilution (ab19857, Abcam Plc, Cambridge, UK). For immunofluorescence microscopy analysis of fluorescent-tagged peptides, cells were incubated in 500 μM peptide in cell culture medium for 15 minutes, washed twice in ice cold PBS and mounted with Vectorshield containing DAPI. Cells were visualized using a Leica DM6000B fluorescence microscope (Leica Microsystems) and processed using Leica LAS X Core software (Leica Microsystems).
as §3

[7] = system: pERK1/2 in wtD3 mESCs; assay: Western blot analysis of phosphorylated ERK1/2; assay type: cell-based, mouse
[8] = system: mESCs; assay: Cell viability in monolayer culture; assay type: cell-based, mouse; details: data not shown
[9] = system: Akt phosphorylation in mESCs; assay: Akt phosphorylation in treated mESCs; assay type: cell-based, mouse; details: data not shown
Description: as §2

[10] = system: MCF-7; details: MCF-7 cell line; cited from earlier work
Source text: (§4) E-cadherin provides an attractive target to manipulate ESCs in culture since cell signalling mediated through this protein has significant effects on both ESC pluripotent states and survival. We have previously shown that abrogation of E-cadherin-mediated cellular aggregation allows culture of mESCs in shake flask bioreactors whilst retaining pluripotency, either through gene knockout or an inhibitory antibody DECMA-1[16]. However, utilisation of E-cadherin neutralising Abs for ESC culture is expensive and more cost-effective E-cadherin inhibitors are required before this technique becomes com ...

[11] = system: STAT3 phosphorylation in wtD3 mESCs; details: mESC; cited from earlier work
Source text: as §4

[12] = system: wtD3 mESCs; details: mESC cell line; cited from earlier work
Source text: as §4

[13] = transcript, mESCs, Fig. 6a summary

H-SWELYYPLRANL-NH2 [Epep, H-SWELYYPLRANL-NH2]
Kd ([1]; equilibrium analysis using affinity capture on HTE chip, peptide stock in water, average of three runs, running buffer HBS/0.02% Tween/2 mM CaCl2/1 mM MgCl2): 3400 nM | Kd ([1]; peptide dissolved in 10%v/v DMSO/H2O, equilibrium analysis using affinity capture): 1150 nM | Loss of cell-cell contact (10μM)? ([2]; mESCs, 10 μM, Fig. 6a summary): YES | Effect on cell-cell contact (in words) ([2]; wtD3 mESCs, 10 μM peptide, 24 h, phase contrast): loss of cell-cell contact after 24 h; also recorded: loss of cell-cell contact within 24 h | Cell-cell contact after removal of the inhibitor ([2]; wtD3 mESCs, 24 h post-removal of treatment): restoration of cell-cell contact; also recorded: reversible | Loss of pStat3 ([3]; mESCs, Fig. 6a summary): YES | Effect on STAT3 phosphorylation (in words) ([3]; wtD3 mESCs vs control treated cells, western blot): decreased STAT3 phosphorylation within 24 h; also recorded: significantly decreased phosphorylation of STAT3 | Transcripts restored to control levels after removal of inhibitor ([4]; mESCs, 24 h post-removal): Nanog, Esrrb, Tbx3 and Tet1 | Loss of ESRRB [4, 13]: YES | Loss of Klf4 [4, 13]: YES | Loss of Nanog [4, 13]: YES | Loss of Nr0b1 [4, 13]: YES | Loss of Nr5a2 [4, 13]: YES | Loss of TBX3 [4, 13]: YES | Transcripts with decreased expression compared to control (qPCR) ([4]; wtD3 mESCs, 10 μM peptide, 24 h): Nanog, Klf4, Tbx3, Esrrb, Nr0b1, Nr5a2 and Tet1 | Transcripts remaining significantly decreased after removal of inhibitor ([4]; wtD3 mESCs, 24 h following removal): Klf4, Nr0b1 and Nr5a2 | NANOG protein expression [5]: decreased NANOG protein expression | OCT4 protein expression in the presence of SB431542 ([6]; peptide-treated wtD3 mESCs plus Activin/Nodal inhibitor SB431542, after 5 days): maintained expression of OCT4 protein | OCT4 protein expression in the presence of SU5402 ([6]; peptide-treated wtD3 mESCs plus FGFR1 inhibitor SU5402, after 5 days): maintained expression of OCT4 protein | pERK1/2 compared to untreated mESCs [7]: decreased pERK1/2 | cell viability in monolayer culture [8]: no significant difference in cell viability | Akt phosphorylation [9]: no changes in Akt phosphorylation | inhibition of E-cadherin mediated cell-cell contact [10]: inhibit E-cadherin mediated cell-cell contact | phosphorylation of STAT3 [11]: abrogate phosphorylation of STAT3 | inhibition of E-cadherin mediated cell-cell contact [12]: inhibit E-cadherin mediated cell-cell contact
